In patent publication US20170142972A1, “ANTIMICROBIAL COMPOSITION INHIBITS BACTERIA AND FUNGI” (Troy Corporation, priority 2017, published 2017):

Test system: Pseudomonas aeruginosa (ATCC #10145), Escherichia coli (ATCC #11229), Enterobacter aerogenes (ATCC #13048), and Alcaligenes faecalis (ATCC #25094)
Test: Challenge Method for Quantifying Antibacterial Effectiveness (two 7-day cycles, mixed bacterial inoculum)
Type: cell-based
Conditions: agent alone
Description: In order to quantify the relative antibacterial effectiveness of an antimicrobial composition, samples are prepared by adding various amounts of the antimicrobial composition to identical volumes of a sterile test material. […] Each of the samples is subjected to a two-part challenge procedure and the sample that provides acceptable anti-bacterial protection with the lowest concentration of the antimicrobial composition is identified. Each part of the anti-bacterial challenge consists of a 7-day test cycle. The parts are performed consecutively over 14 test days. […] Challenge testing is accomplished using a mixed bacterial inoculum as the contamination event. These bacteria are Pseudomonas aeruginosa (ATCC #10145), Escherichia coli (ATCC #11229), Enterobacter aerogenes (ATCC #13048), and Alcaligenes faecalis (ATCC #25094). To make the test inoculum, each type of bacteria is grown separately in nutrient broth. Just before use in the challenge test, equal volumes of the four types of bacteria are blended together to make a mixed inoculum. After incubation, both control blanks and samples containing preservative are inoculated with the mixed inoculum. […] Performance ratings of 0, 1, 2, 3 or 4 for each test sample are determined by visual inspection according to the definitions set forth below in Table 1.

Structure (SMILES): O=c1[nH]sc2ccccc12 [BIT, benzisothiazolinone]
- concentration alone required to provide the required protection against bacterial growth on Test Day 14 (adhesive): at least 0.013%
- concentration alone required to provide the required protection against bacterial growth on Test Day 14 (paint): at least 0.004%
